One compound from article PMC9331957, “Design and Validation of Nanofibers Made of Self-Assembled Peptides to Become Multifunctional Stimuli-Sensitive Nanovectors of Anticancer Drug Doxorubicin” (Pharmaceutics, 2022) can be followed below.

One experiment has as its system MDA-MB-231. Description: Cell proliferation assay (CellTiter-Glo, ATP luminescence). Type of experiment: cell-based, human. The note with it: MDA-MB-231, 72 h. The procedure: The cytotoxicity profiles of the NF-Doxo and NF-Doxo-SPION were established on cancer cell line MDA-MB-231 (triple negative human breast cancer). Triple MDA-MB-231 (ECACC, Salisbury, UK) cells were cultured at 37 °C in an atmosphere containing 5% CO2. The culture medium was made of DMEM supplemented with 10% fetal bovine serum, 1% non-essential amino acid (Hyclone Laboratories, Logan, UT, USA), and 1% penicillin/streptomycin (Gibco®, Life Technologies, Paisley, UK). The cell harvesting was made with trypsin/EDTA (0.05%) (Gibco®, Life Technologies, Paisley, UK) at 80% of confluence.
Cell viability and proliferation were studied, using a luminescent test based on quantification of ATP, using the CellTiter-Glo cell proliferation assay (Promega, Madison, WI, USA). Briefly, 3.000 MDA-MB-231 cells were incubated in 100 μL of medium in 96-well plates for 24 h and then treated with different samples. A H2O2 solution at 10 mM was used as positive control and the culture medium alone was tested as a negative control. Doxo (stock solution at 5.24 mM in PBS) was used as a reference. […] Cell viability was then determined using CellTiter-Glo reagent (Promega, Madison, WI, USA). […] The luminescence values were measured with a gain at 135, with an acquisition at 0.5 s, using a microplate reader (Bio-Tek® instruments, Inc., VT, Santa Clara, CA, USA). […]
Background: In ATP-based viability assays light output follows the ATP content of the culture.

Another experiment has as its system MDA-MB-231 cells. The settings on record: 1 h, 5 µM.

Excerpt for MDA-MB-231 cells: To study the uptake of the nanofibers by cancer cells in vitro, the intrinsic fluorescence of the Doxo was followed by means of the confocal spectral imaging (CSI) technique. Briefly, the CSI consists in recording a full fluorescence spectrum from each point of a scanned optical section of the selected cell and then generating the maps (pseudo-color images) reflecting the distribution of spectral parameters (position, shape, width, intensity) in correlation with biochemical events (accumulation, interaction, metabolism, etc). The cells (SKBR3 or MDA-MB-435 cancer cell lines) were plated at a density of 5 × 10^4 cells/well onto cover glasses in 24-well plates for 1 or 6 h. […] They were analyzed under the 50× LWD objective (numerical aperture 0.75; Olympus, Tokyo, Japan) of a LabRam laser scanning confocal microspectrometer (Horiba SA, Villeneuve d’Ascq, Hauts De France, France) equipped with a 491 nm laser source (Cobolt Calypso™), an automated X–Y–Z scanning stage, a low dispersion grating (300 grooves/mm) and an air-cooled EM CCD detector. […] For fluorescence spectral images acquisition from living cells, the living cells were placed under a 50× microscope and scanned through their equatorial optical section (scanning step of 0.8 µm). The full fluorescence spectrum was recorded from each scanned point (typically 30 × 30 spectra per cell, 0.05 s per spectrum). […]

Regarding `COc1cccc2c1C(=O)c1c(O)c3c(c(O)c1C2=O)C[C@@](O)(C(=O)CO)C[C@@H]3O[C@H]1C[C@H](N)[C@H](O)[C@H](C)O1` [Doxo, Doxorubicin], the “IC50 ratio between NF-Doxo and free Doxo (times lower)” value in the experiment on MDA-MB-231 was 10 times. Further, in the experiment with MDA-MB-231 cells, the “fraction of intracellular fluorescence: cytosolic” value is listed as 24.6 and the “fraction of intracellular fluorescence: nuclear” value is given as 75.4.
